Reference: patent EP2987533B1, “7-substituted piperazin-1-yl fluoroquinolone compounds, their use in the treatment of cancer, pharmaceutical compositions and a method for preparation” (priority 2014, dated 2016)

Experiments:
leukemia = assay: NCI five-dose SRB assay, subpanel average; conditions: 48 h
prostate cancer = assay: NCI five-dose SRB assay, subpanel average; conditions: 48 h
SK-OV-3 = assay: NCI one-dose SRB growth assay; type: cell-based; conditions: Homo sapiens; SK-OV-3 (Ovarian Cancer), 10^-5 M, 48 h; read-out: % Growth Inhibition (GI %)
Procedure: (§1) A primary anticancer assay was performed for an approximately 60 human tumor cell line panel derived from nine neoplastic diseases, in accordance with the protocol of the Drug Evaluation Branch, National Cancer Institute, Bethesda, MD (Monks A. et al., J. Natl. Cancer Inst 1991, 83, 757-766; Boyd M.R. and Paull K.D., Drug. Dev. Res. 1995, 34, 91-109; Shoemaker R.H., Nat. Rev. Cancer 2006, 6, 813-823). Briefly, tested compounds were added to the culture at a single concentration (10^-5M), and the cultures were incubated for 48 h. End point determinations were made with a protein binding dye, sulforhodamine B (SRB). The results for each tested compound were reported as the growth percentage of the treated cells when compared to that of the untreated control cells. The percentage growth was evaluated spectrophotometrically versus controls not treated with test agents.

COLO 205 = assay: NCI one-dose SRB growth assay; type: cell-based; conditions: Homo sapiens; COLO 205 (Colon Cancer), 10^-5 M, 48 h; read-out: % Growth Inhibition (GI %)
Procedure: as §1

MCF7 = assay: NCI one-dose SRB growth assay; type: cell-based; conditions: Homo sapiens; MCF7 (Breast Cancer), 10^-5 M, 48 h; read-out: % Growth Inhibition (GI %)
Procedure: as §1

SR = assay: NCI one-dose SRB growth assay; type: cell-based; conditions: Homo sapiens; SR (Leukemia), 10^-5 M, 48 h; read-out: % Growth Inhibition (GI %)
Procedure: as §1

HOP-62 = assay: NCI one-dose SRB growth assay; type: cell-based; conditions: Homo sapiens; HOP-62 (Non-Small Cell Lung Cancer), 10^-5 M, 48 h; read-out: % Growth Inhibition (GI %)
Procedure: as §1

PC-3 = assay: NCI one-dose SRB growth assay; type: cell-based; conditions: Homo sapiens; PC-3 (Prostate Cancer), 10^-5 M, 48 h; read-out: % Growth Inhibition (GI %)
Procedure: as §1

SW-620 = assay: NCI one-dose SRB growth assay; type: cell-based; conditions: Homo sapiens; SW-620 (Colon Cancer), 10^-5 M, 48 h; read-out: % Growth Inhibition (GI %)
Procedure: as §1

HT29 = assay: NCI one-dose SRB growth assay; type: cell-based; conditions: Homo sapiens, HT-29; HT29 (Colon Cancer), 10^-5 M, 48 h; read-out: % Growth Inhibition (GI %)
Procedure: as §1

A549/ATCC = assay: NCI one-dose SRB growth assay; type: cell-based; conditions: Homo sapiens; A549/ATCC (Non-Small Cell Lung Cancer), 10^-5 M, 48 h; read-out: % Growth Inhibition (GI %)
Procedure: as §1

NCI-H226 = assay: NCI one-dose SRB growth assay; type: cell-based; conditions: Homo sapiens; NCI-H226 (Non-Small Cell Lung Cancer), 10^-5 M, 48 h; read-out: % Growth Inhibition (GI %)
Procedure: as §1

SK-MEL-28 = assay: NCI one-dose SRB growth assay; type: cell-based; conditions: Homo sapiens; SK-MEL-28 (Melanoma), 10^-5 M, 48 h; read-out: % Growth Inhibition (GI %)
Procedure: as §1

T-47D = assay: NCI one-dose SRB growth assay; type: cell-based; conditions: Homo sapiens, T47D; T-47D (Breast Cancer), 10^-5 M, 48 h; read-out: % Growth Inhibition (GI %)
Procedure: as §1

LOX IMVI = assay: NCI one-dose SRB growth assay; type: cell-based; conditions: Homo sapiens; LOX IMVI (Melanoma), 10^-5 M, 48 h; read-out: % Growth Inhibition (GI %)
Procedure: as §1

KM12 = assay: NCI one-dose SRB growth assay; type: cell-based; conditions: Homo sapiens; KM12 (Colon Cancer), 10^-5 M, 48 h; read-out: % Growth Inhibition (GI %)
Procedure: as §1

HCT-116 = assay: NCI one-dose SRB growth assay; type: cell-based; conditions: Homo sapiens; HCT-116 (Colon Cancer), 10^-5 M, 48 h; read-out: % Growth Inhibition (GI %)
Procedure: as §1

BT-549 = assay: NCI one-dose SRB growth assay; type: cell-based; conditions: Homo sapiens; BT-549 (Breast Cancer), 10^-5 M, 48 h; read-out: % Growth Inhibition (GI %)
Procedure: as §1

MDA-MB-435 = assay: NCI one-dose SRB growth assay; type: cell-based; conditions: Homo sapiens; MDA-MB-435 (Melanoma), 10^-5 M, 48 h; read-out: % Growth Inhibition (GI %)
Procedure: as §1

U251 = assay: NCI one-dose SRB growth assay; type: cell-based; conditions: Homo sapiens, U-251; U251 (CNS Cancer), 10^-5 M, 48 h; read-out: % Growth Inhibition (GI %)
Procedure: as §1

IGROV1 = assay: NCI one-dose SRB growth assay; type: cell-based; conditions: Homo sapiens, IGROV-1; IGROV1 (Ovarian Cancer), 10^-5 M, 48 h; read-out: % Growth Inhibition (GI %)
Procedure: as §1

MOLT-4 = assay: NCI one-dose SRB growth assay; type: cell-based; conditions: Homo sapiens; MOLT-4 (Leukemia), 10^-5 M, 48 h; read-out: % Growth Inhibition (GI %)
Procedure: as §1

NCI/ADR-RES = assay: NCI one-dose SRB growth assay; type: cell-based; conditions: Homo sapiens; NCI/ADR-RES (Ovarian Cancer), 10^-5 M, 48 h; read-out: % Growth Inhibition (GI %)
Procedure: as §1

SF-295 = assay: NCI one-dose SRB growth assay; type: cell-based; conditions: Homo sapiens; SF-295 (CNS Cancer), 10^-5 M, 48 h; read-out: % Growth Inhibition (GI %)
Procedure: as §1

CNS cancer = assay: NCI five-dose SRB assay, subpanel average; conditions: 48 h
breast cancer = assay: NCI five-dose SRB assay, subpanel average; conditions: 48 h
[1] = Homo sapiens, read-out: GI50 (median growth inhibitory)
[2] = Homo sapiens, read-out: LC50 (median lethal)

Cc1cc(C)c(S(=O)(=O)N2CCN(c3cc4c(cc3F)c(=O)c(C(=O)O)cn4C3CC3)CC2)c(C)c1 [Compound 6b]
GI50 (leukemia; [1]): 2.57 µM
CC50 (leukemia; [2]): > 100 µM
TGI (total growth inhibitory) (leukemia; average over leukemia subpanel, five concentrations): 76.70 µM
GI50 (prostate cancer; [1]): 3.4 µM
CC50 (prostate cancer; [2]): > 100 µM
TGI (total growth inhibitory) (prostate cancer; average over prostate cancer subpanel, five concentrations): c (Compounds showed values > 100µM)
inhibition at 10 µM (SK-OV-3): 18.4%
inhibition at 10 µM (COLO 205): 42.4%
inhibition at 10 µM (MCF7): 46%
inhibition at 10 µM (SR): 60.9%
inhibition at 10 µM (HOP-62): 42.7%
inhibition at 10 µM (PC-3): 32.1%
inhibition at 10 µM (SW-620): 20.2%
inhibition at 10 µM (HT29): 71.7%
inhibition at 10 µM (A549/ATCC): 79.7%
inhibition at 10 µM (NCI-H226): 28.2%
inhibition at 10 µM (SK-MEL-28): 30.9%
inhibition at 10 µM (T-47D): 37%
inhibition at 10 µM (LOX IMVI): 70.4%
inhibition at 10 µM (KM12): 39.3%
inhibition at 10 µM (HCT-116): 67.8%
inhibition at 10 µM (BT-549): 22.7%
inhibition at 10 µM (MDA-MB-435): 23.9%
inhibition at 10 µM (U251): 80.3%
inhibition at 10 µM (IGROV1): 64.3%
inhibition at 10 µM (MOLT-4): 39%
inhibition at 10 µM (NCI/ADR-RES): 30.1%
inhibition at 10 µM (SF-295): 66.8%
GI50 (CNS cancer; [1]): 2.95 µM
CC50 (CNS cancer; [2]): > 100 µM
TGI (total growth inhibitory) (CNS cancer; average over CNS cancer subpanel, five concentrations): c (Compounds showed values > 100µM)
GI50 (breast cancer; [1]): 2.85 µM
CC50 (breast cancer; [2]): > 100 µM
TGI (total growth inhibitory) (breast cancer; average over breast cancer subpanel, five concentrations): 76.89 µM
